{"source": "paper PMC10712729", "about": "“A Phase I Trial of the Dual MET Kinase/OCT-2 Inhibitor OMO-1 in Metastatic Solid Malignancies Including MET Exon 14 Mutated Lung Cancer” (The Oncologist, 2023)", "test": "Phase I safety and tolerability of OMO-1 monotherapy, Module 1 Part A dose escalation (drug-related TEAEs, DLTs, RP2D)", "conditions": "for DLTs: first cycle", "note": "Several values for one entry are separate records, joined by “and”; a condition that tells them apart may be missing. Equal entries are not always repeated.", "description": "This study was part of a modular, first-in-patient, openlabel multicenter study of OMO-1, administered orally, mono-therapy, and in combination with EGFR-TKI, in patients with locally advanced, unresectable, or metastatic solid malignancies (study protocol can be). […] Module 1 (OMO-1 monotherapy) consisted of Part A (dose escalation) and Part B (expansion cohorts). Part A assessed the safety and tolerability of ascending doses of OMO-1 given as monotherapy in unselected patients with locally advanced, unresectable, or metastatic malignancies and determined the recommended phase 2 dose (RP2D). Part B assessed the preliminary efficacy of the RP2D of OMO-1 in patients with METex14-positive NSCLC (cohort 1) and patients with MET amplified NSCLC or patients with other MET positive solid tumors, either METex14 or MET amplification (MET basket; cohort 2). The MET status of the tumor was assessed locally by site-specific guidelines. For MET exon 14 skipping mutations next generation sequencing (NGS) was used and for MET amplifications either NGS or fluorescence in situ hybridization (Supplementary 1). Prior treatment with a MET inhibitor was an exclusion criterion.\nOMO-1 was administered orally, twice daily (BID) with a minimal interval of 4-5 h with food in a continuous 21 day/cycle regimen until clinical progression or emergence of significant toxicity. The starting dose was 100 mg BID. The dose was escalated sequentially in cohorts of at least 3 patients using a standard 3 + 3 dose escalation design. […] During the monotherapy dose escalation Module 1 Part A, blood samples were collected for PK analysis throughout the study as per protocol (S1).\nThe dose-limiting toxicity (DLT) evaluation period was within the first cycle of treatment; although all events beyond this point were also reviewed at the time of dose escalation to ensure an OLED was chosen as RP2D.\nSafety analyses were descriptive. With respect to primary objectives and endpoints, no specific hypotheses were tested statistically. The primary focus was on determining the safety profile and RP2D, and the identification of a range of biologically active doses and PK of OMO-1 in patients with cancer. Safety, PK, and PD biomarker data were reviewed on an ongoing basis in line with the cohort progression criteria by the Safety Review Committee (SRC).", "data": [{"smiles": "FC(F)(c1ccc2ncccc2c1)c1nnc2ccc(-c3ccncc3)nn12", "note": "[OMO-1]", "values": [{"measurement": "Vomiting, Drug-related TEAEs, SAE", "setting": "350 mg BID n = 5", "value": "1 (20%) n (%)"}, {"measurement": "Anemia, Drug-related TEAEs, All grades", "setting": "400 mg BID n = 3", "value": "1 (33%) n (%)"}, {"measurement": "Blood bilirubin ↑, Drug-related TEAEs, All grades", "setting": "400 mg BID n = 3", "value": "1 n (%)"}, {"measurement": "Blood bilirubin ↑, Drug-related TEAEs, SAE", "setting": "400 mg BID n = 3", "value": "1 (33%) n (%)"}, {"measurement": "Blood creatinine ↑, Drug-related TEAEs, All grades", "setting": "400 mg BID n = 3", "value": "3 (100%) n (%)"}, {"measurement": "Blood creatinine ↑, Drug-related TEAEs, SAE", "setting": "400 mg BID n = 3", "value": "1 (33%) n (%)"}, {"measurement": "Chills/ influenza like symptoms, Drug-related TEAEs, All grades", "setting": "400 mg BID n = 3", "value": "1 (33%) n (%)"}, {"measurement": "Chills/ influenza like symptoms, Drug-related TEAEs, Grade ≥3", "setting": "400 mg BID n = 3", "value": "1 (33%) n (%)"}, {"measurement": "Chills/ influenza like symptoms, Drug-related TEAEs, SAE", "setting": "400 mg BID n = 3", "value": "1 (33%) n (%)"}, {"measurement": "Decreased appetite, Drug-related TEAEs, All grades", "setting": "400 mg BID n = 3", "value": "0 n (%)"}, {"measurement": "Diarrhoea, Drug-related TEAEs, All grades", "setting": "400 mg BID n = 3", "value": "1 (33%) n (%)"}, {"measurement": "Diarrhoea, Drug-related TEAEs, SAE", "setting": "400 mg BID n = 3", "value": "1 (33%) n (%)"}, {"measurement": "Fatigue, Drug-related TEAEs, All grades", "setting": "400 mg BID n = 3", "value": "2 (67%) n (%)"}, {"measurement": "Nausea, Drug-related TEAEs, All grades", "setting": "400 mg BID n = 3", "value": "1 (33%) n (%)"}, {"measurement": "Nausea, Drug-related TEAEs, SAE", "setting": "400 mg BID n = 3", "value": "1 (33%) n (%)"}, {"measurement": "Neutrophil count↓, Drug-related TEAEs, All grades", "setting": "400 mg BID n = 3", "value": "1 n (%)"}, {"measurement": "Neutrophil count↓, Drug-related TEAEs, SAE", "setting": "400 mg BID n = 3", "value": "1 (33%) n (%)"}, {"measurement": "Tachycardia, Drug-related TEAEs, All grades", "setting": "400 mg BID n = 3", "value": "1 (33%) n (%)"}, {"measurement": "Total n with AE, Drug-related TEAEs, All grades", "setting": "400 mg BID n = 3", "value": "3 (100%) n (%)"}, {"measurement": "Total n with AE, Drug-related TEAEs, Grade ≥3", "setting": "400 mg BID n = 3", "value": "1 (33%) n (%)"}, {"measurement": "Total n with AE, Drug-related TEAEs, SAE", "setting": "400 mg BID n = 3", "value": "2 (67%) n (%)"}, {"measurement": "patients discontinued due to related toxicity", "setting": "100, 200, and 250 mg BID", "value": "25% (4/16)"}, {"measurement": "Anemia, Drug-related TEAEs, All grades", "setting": "All doses n = 24", "value": "4 (17%) n (%)"}, {"measurement": "Anemia, Drug-related TEAEs, Grade ≥3", "setting": "All doses n = 24", "value": "1 (4%) n (%)"}, {"measurement": "Blood bilirubin ↑, Drug-related TEAEs, All grades", "setting": "All doses n = 24", "value": "1 (4%) n (%)"}, {"measurement": "Blood bilirubin ↑, Drug-related TEAEs, SAE", "setting": "All doses n = 24", "value": "1 (4%) n (%)"}, {"measurement": "Blood creatinine ↑, Drug-related TEAEs, All grades", "setting": "All doses n = 24", "value": "9 (38%) n (%)"}, {"measurement": "Blood creatinine ↑, Drug-related TEAEs, Grade ≥3", "setting": "All doses n = 24", "value": "1 (4%) n (%)"}, {"measurement": "Blood creatinine ↑, Drug-related TEAEs, SAE", "setting": "All doses n = 24", "value": "1 (4%) n (%)"}, {"measurement": "Chills/ influenza like symptoms, Drug-related TEAEs, All grades", "setting": "All doses n = 24", "value": "3 (13%) n (%)"}, {"measurement": "Chills/ influenza like symptoms, Drug-related TEAEs, Grade ≥3", "setting": "All doses n = 24", "value": "1 (4%) n (%)"}, {"measurement": "Chills/ influenza like symptoms, Drug-related TEAEs, SAE", "setting": "All doses n = 24", "value": "2 (8%) n (%)"}, {"measurement": "Decreased appetite, Drug-related TEAEs, All grades", "setting": "All doses n = 24", "value": "4 (17%) n (%)"}, {"measurement": "Diarrhoea, Drug-related TEAEs, SAE", "setting": "All doses n = 24", "value": "1 (4%) n (%)"}, {"measurement": "Dizziness, Drug-related TEAEs, All grades", "setting": "All doses n = 24", "value": "4 (17%) n (%)"}, {"measurement": "Fatigue, Drug-related TEAEs, All grades", "setting": "All doses n = 24", "value": "10 (42%) n (%)"}, {"measurement": "Fatigue, Drug-related TEAEs, Grade ≥3", "setting": "All doses n = 24", "value": "1 (4%) n (%)"}, {"measurement": "Headache, Drug-related TEAEs, All grades", "setting": "All doses n = 24", "value": "5 (21%) n (%)"}, {"measurement": "Nausea, Drug-related TEAEs, Grade ≥3", "setting": "All doses n = 24", "value": "1 (4%) n (%)"}, {"measurement": "Nausea, Drug-related TEAEs, SAE", "setting": "All doses n = 24", "value": "3 n (%) and 3 (13%) n (%)"}, {"measurement": "Neutrophil count↓, Drug-related TEAEs, All grades", "setting": "All doses n = 24", "value": "1 (4%) n (%)"}, {"measurement": "Neutrophil count↓, Drug-related TEAEs, SAE", "setting": "All doses n = 24", "value": "1 (4%) n (%)"}, {"measurement": "Tachycardia, Drug-related TEAEs, All grades", "setting": "All doses n = 24", "value": "3 (13%) n (%)"}, {"measurement": "Total n with AE, Drug-related TEAEs, All grades", "setting": "All doses n = 24", "value": "23 (96%) n (%)"}, {"measurement": "Total n with AE, Drug-related TEAEs, Grade ≥3", "setting": "All doses n = 24", "value": "6 (25%) n (%)"}, {"measurement": "Total n with AE, Drug-related TEAEs, SAE", "setting": "All doses n = 24", "value": "7 n (%) and 7 (29%) n (%)"}, {"measurement": "Vomiting, Drug-related TEAEs, All grades", "setting": "All doses n = 24", "value": "9 (38%) n (%)"}, {"measurement": "Vomiting, Drug-related TEAEs, Grade ≥3", "setting": "All doses n = 24", "value": "2 (8%) n (%)"}, {"measurement": "Vomiting, Drug-related TEAEs, SAE", "setting": "All doses n = 24", "value": "2 n (%) and 2 (8%) n (%)"}, {"measurement": "grade 5 (fatal) TEAEs", "setting": "Module 1 Part A", "value": "No grade 5 (fatal) TEAEs"}, {"measurement": "number of drug-related SAEs", "setting": "Module 1 Part A, all doses", "value": 11}, {"measurement": "number of drug-related TEAE recorded", "setting": "Module 1 Part A, all doses", "value": 129}, {"measurement": "patients discontinued due to toxicity related to OMO-1, in total", "setting": "Module 1 Part A, all doses", "value": 8, "unit": "patients"}, {"measurement": "patients with drug-related TEAE", "setting": "Module 1 Part A, all doses", "value": "23 out of 24"}, {"measurement": "DLTs", "setting": "cohort 1 (100 mg BID)", "value": "no DLTs"}, {"measurement": "DLTs", "setting": "cohort 2 (200 mg BID)", "value": "no DLTs"}, {"measurement": "number of TEAEs that led to OMO-1 treatment discontinuation", "setting": "cohort 3 (400 mg BID)", "value": 6, "unit": "TEAEs"}, {"measurement": "patients requiring a dose reduction due to treatment-related toxicity", "setting": "cohort 3 (400 mg BID)", "value": "2 out of 3"}, {"measurement": "DLTs", "setting": "cohort 3 (400 mg BID)", "value": "no DLTs"}, {"measurement": "DLTs", "setting": "cohort 4 (250 mg BID)", "value": "No DLTs"}, {"measurement": "peripheral edema related to OMO-1", "setting": "in vivo", "value": "No reports"}, {"measurement": "recommended phase 2 dose (RP2D)", "setting": "oral monotherapy, 3 + 3 dose escalation, continuous 21 day/cycle", "value": 250, "unit": "mg BID"}]}]}
